Results: BindingDB's records for patent US20250340565 (AdoRx Therapeutics, 2025)

Molecular target: T1, 5'-nucleotidase [27-547] (UniProt P21589)
T1 construct: 27-547
T1 sequence (P21589 whole entry): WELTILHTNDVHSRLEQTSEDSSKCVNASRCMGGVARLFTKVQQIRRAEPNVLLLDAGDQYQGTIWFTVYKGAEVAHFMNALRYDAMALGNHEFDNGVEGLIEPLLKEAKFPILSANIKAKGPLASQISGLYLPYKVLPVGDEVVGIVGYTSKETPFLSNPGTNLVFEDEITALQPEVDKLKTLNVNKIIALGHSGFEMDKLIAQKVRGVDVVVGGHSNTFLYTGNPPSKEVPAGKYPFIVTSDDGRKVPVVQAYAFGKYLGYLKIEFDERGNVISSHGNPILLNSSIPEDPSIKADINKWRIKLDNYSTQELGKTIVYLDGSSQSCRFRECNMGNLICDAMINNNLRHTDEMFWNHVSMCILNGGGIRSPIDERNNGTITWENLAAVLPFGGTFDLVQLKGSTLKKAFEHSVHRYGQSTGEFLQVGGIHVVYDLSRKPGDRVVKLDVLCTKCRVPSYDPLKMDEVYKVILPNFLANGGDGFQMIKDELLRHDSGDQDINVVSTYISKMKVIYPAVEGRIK
Assay: CD73 Inhibition Assay
Description: Compound inhibition of human (h)CD73 (amino acids Trp27-Lys547, R&D Systems 5795-EN-500) enzymatic activity was tested via the Malachite Green Phosphate Detection Kit (R&D DY996). Experiments were performed in 20 μL Tris buffer (25 mM Tris pH 7.5, 5 mM MgCl2, 0.002% Tween20), with 250 pM of hCD73. Test compounds of interest were prepared in a threefold serial dilution in DMSO and added to the assay to give the appropriate final concentration, with the assay DMSO concentration being 1%. Compounds were pre-incubated for 20 minutes with hCD73 in a 384 well clear plate (Greiner 781101), followed by the addition of adenosine monophosphate (AMP) to 12.5 μM. The enzymatic reaction was carried out for 20 min at room temperature. 5 μL of Malachite kit reagent A was added to stop the reaction (contains 3M H2SO4) and after 10 min, 5 μL of Malachite kit reagent B was added (Malachite Green). After 30 min, absorbance at 620 nm was read on a BMG Pherastar FSX.

`O=c1[nH]cc(-n2cc3c(N4C[C@@H]5COC[C@H]5C4)ncnc3n2)c(=O)[nH]1` [US20250340565, Example 13.10] showed an IC50 of 898 nM.
